Measured values: ChEMBL document CHEMBL3124894, “Lactam sulfonamides as potent inhibitors of the Kv1.5 potassium ion channel” (Bioorg Med Chem Lett, 2014)

How the values were obtained:
[1] = Lipophilicity, log D of the compound by chromatography; format: physicochemical
[2] = biological target: T1, Potassium voltage-gated channel subfamily A member 5 (Homo sapiens, UniProt P22460); test: Inhibition of human Kv1.5 ion channel expressed in CHO cells by patch clamp assay; format: cell-based
Oryctolagus cuniculus [3] = test: Toxicity in New Zealand white rabbit assessed as CNS-like side effects at 0.1 to 1 umol/kg/min administered as infusion; format: organism-based; conditions: in vivo, iv
Oryctolagus cuniculus [4] = test: Cardiotoxicity in New Zealand white rabbit assessed as QT interval at 0.1 to 1 umol/kg/min administered as infusion; format: toxicity, organism-based; conditions: in vivo, iv
Oryctolagus cuniculus [5] = test: Antiarrhythmic activity in New Zealand white rabbit assessed as unbound steady-state plasma concentration giving 20% change in atrium effective refractory period at 0.1 to 1 umol/kg/min administered as infusion; format: functional
[6] = Oral bioavailability in Beagle dog at 2 umol/kg; format: ADME, organism-based, Canis lupus familiaris; conditions: in vivo
[7] = Oral bioavailability in Sprague-Dawley rat at 6 umol/kg; format: ADME, organism-based; conditions: in vivo
[8] = Terminal half life in Beagle dog at 1 umol/kg, iv and 2 umol/kg, po; format: ADME, organism-based, Canis lupus familiaris; conditions: in vivo, read-out: beta t1/2 (converted)
[9] = Terminal half life in Sprague-Dawley rat at 2 umol/kg, iv and 6 umol/kg, po; format: ADME, organism-based; conditions: in vivo, read-out: beta t1/2 (converted)
[10] = Clearance in Beagle dog at 1 umol/kg, iv and 2 umol/kg, po; format: ADME, organism-based, Canis lupus familiaris; conditions: in vivo
[11] = Clearance in Sprague-Dawley rat at 2 umol/kg, iv and 6 umol/kg, po; format: ADME, organism-based; conditions: in vivo
[12] = Intrinsic clearance in human liver microsomes assessed per mg protein; format: ADME; conditions: read-out: CLH
[13] = biological target: T1, Potassium voltage-gated channel subfamily A member 5; test: Inhibition of Kv1.5 ion channel (unknown origin) expressed in CHO cells by Rb(+) efflux assay; format: cell-based

T1 sequence (P22460 whole entry, the tested form may be a part): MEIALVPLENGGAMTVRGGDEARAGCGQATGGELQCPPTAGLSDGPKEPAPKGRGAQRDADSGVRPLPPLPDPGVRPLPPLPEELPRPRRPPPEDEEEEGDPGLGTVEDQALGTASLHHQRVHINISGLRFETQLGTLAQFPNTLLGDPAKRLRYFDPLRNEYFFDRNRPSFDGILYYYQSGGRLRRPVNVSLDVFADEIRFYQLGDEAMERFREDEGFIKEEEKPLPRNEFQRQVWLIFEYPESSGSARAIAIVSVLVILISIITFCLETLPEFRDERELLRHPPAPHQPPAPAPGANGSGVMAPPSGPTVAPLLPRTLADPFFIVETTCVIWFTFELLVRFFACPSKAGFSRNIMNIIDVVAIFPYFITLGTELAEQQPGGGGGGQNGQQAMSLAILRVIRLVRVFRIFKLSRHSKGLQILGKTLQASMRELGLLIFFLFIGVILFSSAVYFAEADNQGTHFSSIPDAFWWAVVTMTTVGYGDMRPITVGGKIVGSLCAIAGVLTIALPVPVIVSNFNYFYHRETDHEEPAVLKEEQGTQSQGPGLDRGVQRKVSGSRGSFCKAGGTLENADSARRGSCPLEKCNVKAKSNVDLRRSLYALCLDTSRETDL

Row | Compound | chromatographic logD [1] | IC50 [2] | other results
1 | N#Cc1cccc(S(=O)(=O)N(Cc2ccc(F)cc2)C[C@@H]2CCCC(=O)N2)c1 | 2.9 | 7.6 µM | 
2 | N#Cc1cccc(S(=O)(=O)N(CC[C@@H]2CCC(=O)N2)Cc2ccc(F)cc2)c1 | 2.9 | 2.7 µM | 
3 | CN1C(=O)CC[C@H]1CN(Cc1ccc(F)cc1)S(=O)(=O)c1cccc(C#N)c1 | 3.1 | 0.81 µM | 
4 | CCN1C(=O)CC[C@H]1CN(Cc1ccc(F)cc1)S(=O)(=O)c1cccc(C#N)c1 | 3.5 | 2.8 µM | 
5 | N#Cc1cccc(S(=O)(=O)N(CCc2ccc(F)cc2)C[C@@H]2CCC(=O)N2)c1 | 2.9 | > 10 µM | 
6 | N#Cc1cccc(S(=O)(=O)N(Cc2ccc(Cl)cc2)C[C@@H]2CCC(=O)N2)c1 | 3.1 | 2.2 µM | 
7 | N#Cc1cccc(S(=O)(=O)N(Cc2cccc(Cl)c2)C[C@@H]2CCC(=O)N2)c1 | 3 | 4.3 µM | 
8 | N#Cc1cccc(S(=O)(=O)N(Cc2ccccc2Cl)C[C@@H]2CCC(=O)N2)c1 | 2.7 | > 10 µM | 
9 | CN1C(=O)CC[C@H]1CN(Cc1ccc(Cl)cc1)S(=O)(=O)c1cccc(C#N)c1 | 3.6 | 0.21 µM | Activity (Oryctolagus cuniculus [3]): Non-toxic; Time (Oryctolagus cuniculus [4]): < 10 ms; Cp(f)ss (Oryctolagus cuniculus [5]): 0.35 µM; bioavailability [6]: 44%; bioavailability [7]: 45%; half-life [8]: 52.2 min; half-life [9]: 31.8 min; clearance [10]: 31 mL/min/kg; clearance [11]: 45 mL/min/kg; microsomal CLint [12]: 116 µL/min/mg
10 | NC(=O)c1ccc(N(Cc2ccc(F)cc2)S(=O)(=O)c2ccccc2F)cc1 | 3.4 | 2.2 µM | 
11 | O=S(=O)(c1ccccc1F)N(Cc1ccccc1)Cc1ccc(F)cc1 | 6.2 | 4.8 µM | 
12 | O=S(=O)(c1ccc(F)cc1)N(Cc1ccc(F)cc1)Cc1ccccn1 | 4.7 | 2 µM | 
13 | O=C1CC[C@@H](CN(Cc2ccc(F)cc2)S(=O)(=O)c2ccc(F)cc2)N1 | 3 | 4.1 µM | 
14 | O=C1CC[C@@H](CN(Cc2ccc(F)cc2)S(=O)(=O)c2ccccc2)N1 | 2.7 | 8.8 µM | 
15 | O=C1CC[C@@H](CN(Cc2ccc(F)cc2)S(=O)(=O)c2cccc(F)c2)N1 | 3.1 | 7.2 µM | 
16 | O=C1CC[C@@H](CN(Cc2ccc(F)cc2)S(=O)(=O)c2cccc(Cl)c2)N1 | 3.6 | 0.8 µM | 
17 | O=C1CC[C@@H](CN(Cc2ccc(F)cc2)S(=O)(=O)c2cc(Cl)cc(Cl)c2)N1 | 4.4 | 8.1 µM | 
18 | COc1cccc(S(=O)(=O)N(Cc2ccc(F)cc2)C[C@@H]2CCC(=O)N2)c1 | 3.1 | 2 µM | 
19 | O=C1CC[C@@H](CN(Cc2ccc(F)cc2)S(=O)(=O)c2cccc3c2OCCO3)N1 | 3 | > 10 µM | 
20 | CS(=O)(=O)c1cccc(S(=O)(=O)N(Cc2ccc(F)cc2)C[C@@H]2CCC(=O)N2)c1 | 2 | 8.7 µM | 
21 | N#Cc1cccc(S(=O)(=O)N(Cc2ccc(F)cc2)C[C@@H]2CCC(=O)N2)c1 | 2.7 | 2.6 µM | 
22 | N#Cc1ccc(S(=O)(=O)N(Cc2ccc(F)cc2)C[C@@H]2CCC(=O)N2)cc1 | 2.6 | > 30 µM | 
23 | N#Cc1ccccc1S(=O)(=O)N(Cc1ccc(F)cc1)C[C@@H]1CCC(=O)N1 | 2.5 | > 30 µM | 
24 | N#Cc1cccc(S(=O)(=O)N(Cc2ccc(F)cc2)C[C@H]2CCC(=O)N2)c1 | 2.5 | 8.7 µM | 
25 | COc1ccc(S(=O)(=O)N[C@H]2CCCC[C@@H]2OCc2ccccc2)cc1 (racemic) |  |  | IC50 [13]: 28 µM
26 | COc1ccc(S(=O)(=O)N(Cc2ccccc2)[C@H]2CCCC[C@@H]2O)cc1 (racemic) | 4.6 |  | IC50 [13]: 2 µM
